Results from article PMC3933693, “Novel Inhibitors of Mitochondrial sn-Glycerol 3-phosphate Dehydrogenase” (PLoS ONE, 2014).

Test system: STHdhQ7 cells
Test: Live cell imaging of iGP-1 fluorescence (ability to cross cellular membranes)
Type: cell-based
Details: 100 µM; intrinsic fluorescence in live cells
Procedure: The ability of iGP-1 to cross cellular membranes was evaluated in STHdhQ7 cells cultured at 33°C as described. Cells were seeded on collagen-coated, Lab-Tek chambered coverglass (Nunc) 48 h before use. Prior to imaging, cells were cultured for 45 min with 65 nM LysoTracker Red ±250 nM bafilomycin A1. Medium was then replaced with imaging buffer (120 mM NaCl, 3.5 mM KCl, 0.4 mM KH2PO4, 20 mM TES, 5 mM NaHCO3, 1.2 mM Na2SO4, 1.5 mM CaCl2, 0.5 mM MgCl2, 2 mM Glucose, and 0.2% BSA, pH 7.4) containing DMSO, 250 nM bafilomycin A1 or 100 µM iGP-1. Cells were imaged on a Nikon Eclipse Ti-PFS inverted microscope equipped with a Cascade 512B camera (Photometrics, Tucson, AZ), a Plan Fluor 100X/1.3 oil objective, an LB-LS17 Xe-arc light source (attenuated), 10–3 excitation and emission filter wheels (Sutter Instruments, Novato, CA), and an MS-2000 linear encoded motorized stage (ASI, Eugene, OR). The filter sets, given as excitation, dichroic mirror, emission in nm/bandwidth, were, for iGP-1 (1 s exposure), 340/26, 409, 460/80 and for LysoTracker Red (100 ms exposure), 543/22, 562, 588/21 (all from Semrock, Rochester, NY). Image acquisition was controlled by NIS Elements 4.0 (Nikon, Melville, NY). Images of cell-free wells containing buffer with DMSO or iGP-1 were used for background subtraction in Image Analyst MKII (Novato, CA).

SMILES: O=C(O)CCC(=O)Nc1ccc(-c2nc3ccccc3[nH]2)cc1 [iGP-1]
- cell permeability: readily crosses cellular membranes
